“And” between values parts separate entries of the source, which are not always exact repeats. Equal entries are not always repeated. Where two headings read alike, the source gives them in different places.
Experiments:
[1] = molecular target: T1, TTK (MV4-11^HiBiT-TTK cells) (Homo sapiens, UniProt P33981); assay: HiBiT assay, TTK degradation; type: cell-based; design: key to Dmax (maximal degradation) TTK: compounds with degradation less than 15% reported as “inactive”; conditions: for DC50: read-out: DC50 (half-maximal degradation concentration) TTK
T1 construct: expressed in transfected cells; host or cells: MV4-11, lentiviral transduction (pRRL-PGK-HiBiT entry vector)
T1 sequence (P33981 1-857): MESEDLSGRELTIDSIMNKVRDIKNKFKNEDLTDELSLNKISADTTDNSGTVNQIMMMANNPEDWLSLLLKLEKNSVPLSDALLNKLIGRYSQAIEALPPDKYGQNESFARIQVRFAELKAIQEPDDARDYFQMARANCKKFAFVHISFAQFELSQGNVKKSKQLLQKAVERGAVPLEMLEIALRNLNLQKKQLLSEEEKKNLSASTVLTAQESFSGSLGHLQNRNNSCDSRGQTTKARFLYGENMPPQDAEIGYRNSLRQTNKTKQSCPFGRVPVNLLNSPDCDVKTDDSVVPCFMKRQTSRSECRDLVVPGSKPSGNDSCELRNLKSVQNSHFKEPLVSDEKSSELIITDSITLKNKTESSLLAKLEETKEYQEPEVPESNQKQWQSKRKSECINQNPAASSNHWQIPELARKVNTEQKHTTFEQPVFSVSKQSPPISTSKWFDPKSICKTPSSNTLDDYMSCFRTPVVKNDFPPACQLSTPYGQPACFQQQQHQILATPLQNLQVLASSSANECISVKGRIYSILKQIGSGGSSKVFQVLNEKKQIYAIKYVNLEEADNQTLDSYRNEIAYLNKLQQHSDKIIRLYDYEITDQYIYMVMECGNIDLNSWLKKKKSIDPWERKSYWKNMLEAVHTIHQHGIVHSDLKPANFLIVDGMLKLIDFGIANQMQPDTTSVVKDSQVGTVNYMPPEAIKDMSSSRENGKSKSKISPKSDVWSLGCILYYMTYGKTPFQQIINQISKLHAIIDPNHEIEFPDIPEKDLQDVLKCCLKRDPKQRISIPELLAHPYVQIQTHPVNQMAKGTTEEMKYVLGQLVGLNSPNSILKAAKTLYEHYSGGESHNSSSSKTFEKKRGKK
Protocol: (§1) The effects of the synthesized compounds on AURKA, AURKB, and TTK mitotic kinases were then assessed in cellular systems. For this, HiBiT cell lines were generated for all three mitotic kinases. A small 11 amino acid peptide fragment of luciferase (HiBiT) was fused to the coding sequence of the proteins and stably transduced in the MV4-11 cell line (MV4-11^AURKA-HiBiT, MV4-11^AURKB-HiBiT, and MV4-11^HiBiT-TTK).
(§2) The stable cell lines MV4-11^AURKA-HiBiT, MV4-11^AURKB-HiBiT, and MV4-11^HiBiT-TTK cells were generated by lentiviral infection. Lentivirus was produced using the respective HiBiT vector, plasmids psPAX2, and pMD2.G in HEK293 cells. The virus supernatant was filtered and MV4-11 cells were doubly infected with the supernatant. The cells were selected after 48 h of infection until the control cells were dead to get the stable cell line.
(§3) The cells stably expressing HiBiT-tagged protein were seeded into 96-well plates and treated with serial dilutions of compounds for the indicated time points. At the end point, the assay was performed using the Nano-Glo HiBiT Lytic Detection System (Promega) according to the manufacturer’s instruction. Luminescence was measured on a GloMax 96 Microplate Luminometer (Promega) or a Tecan Spark Multiplate reader (Tecan). DC50 was calculated using concentrations showing sigmoidal behavior with the dose–response (four parameters) equation in Prism (GraphPad).

[2] = molecular target: T2, AURKA (MV4-11^AURKA-HiBiT cells) (Homo sapiens, UniProt O14965); assay: HiBiT assay, AURKA degradation; type: cell-based; design: key to Dmax (maximal degradation) AURKA: compounds with degradation less than 15% reported as “inactive”; conditions: for DC50: read-out: DC50 (half-maximal degradation concentration) AURKA
T2 construct: expressed in transfected cells; host or cells: MV4-11, lentiviral transduction
T2 sequence (O14965 1-403): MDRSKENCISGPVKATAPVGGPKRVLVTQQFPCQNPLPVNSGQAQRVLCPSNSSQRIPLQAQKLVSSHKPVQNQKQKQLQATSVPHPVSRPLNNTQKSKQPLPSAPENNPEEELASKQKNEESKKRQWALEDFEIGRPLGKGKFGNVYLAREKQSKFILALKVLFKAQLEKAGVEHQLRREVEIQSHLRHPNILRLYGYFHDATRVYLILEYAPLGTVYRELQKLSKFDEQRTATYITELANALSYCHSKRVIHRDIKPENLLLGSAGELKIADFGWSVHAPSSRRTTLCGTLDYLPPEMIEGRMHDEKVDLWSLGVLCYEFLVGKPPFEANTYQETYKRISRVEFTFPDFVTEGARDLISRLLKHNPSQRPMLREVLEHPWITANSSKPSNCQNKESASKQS
Protocol: as §1, §2, §3

[3] = molecular target: T3, AURKB (MV4-11^AURKB-HiBiT cells) (Homo sapiens, UniProt Q96GD4); assay: HiBiT assay, AURKB degradation; type: cell-based; design: key to Dmax (maximal degradation) AURKB: compounds with degradation less than 15% reported as “inactive”; conditions: 6 h treatment; for DC50: read-out: DC50 (half-maximal degradation concentration) AURKB
T3 construct: expressed in transfected cells; host or cells: MV4-11, lentiviral transduction (pRRL-PGK vector)
Protocol: as §1, §2, §3

[4] = test system: MV4-11 cells (naive); assay: alamarBlue cell viability assay; type: cell-based, human
Protocol: Finally, to study the effect of the compounds on cancer cell survival, MV4-11 cells were treated with various concentrations of the chimeras and the cell viability was assessed after 72 h. […] As opposed to the parent inhibitor MPS1-IN-3, its derivatives except 40 were not cytotoxic (Figure S7B, Table 5). […] In addition, most of the SF1-based derivatives affected the viability of MV4-11 cells in nanomolar concentrations (Table 5).
For the alamarBlue cell viability assay, cells were seeded in 96-well plates and treated with indicated concentrations of the compounds or vehicle. A few hours before the experimental end point (72 h, unless otherwise stated), the cells were incubated with the alamarBlue reagent. Finally, fluorescence (excitation: 550 nm and emission: 600 nm) or absorbance (570 nm with reference at 600 nm) was measured on a Tecan Spark Multiplate reader (Tecan).

[5] = 6 h treatment, MV4-11^HiBiT-TTK cells
[6] = 6 h treatment, MV4-11^AURKA-HiBiT cells
[7] = 72 h, MV4-11 cells, read-out: EC50 cytotoxicity
[8] = 72 h treatment, MV4-11 cells (naive), read-out: EC50 (concentration that decreases cell viability by 50%)

T3 sequence (Q96GD4 1-345 isoform Q96GD4-5): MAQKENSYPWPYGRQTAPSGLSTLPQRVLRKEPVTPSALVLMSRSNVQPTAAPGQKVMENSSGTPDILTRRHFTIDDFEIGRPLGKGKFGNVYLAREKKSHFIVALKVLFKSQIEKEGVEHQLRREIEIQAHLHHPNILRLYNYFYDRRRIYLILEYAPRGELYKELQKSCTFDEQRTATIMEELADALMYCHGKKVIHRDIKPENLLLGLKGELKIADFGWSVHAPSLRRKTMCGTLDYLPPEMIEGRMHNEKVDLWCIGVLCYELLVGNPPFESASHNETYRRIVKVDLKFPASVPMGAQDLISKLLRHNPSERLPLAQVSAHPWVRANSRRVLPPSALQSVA

SMILES | Dmax (maximal degradation) TTK [1, 5] | DC50 [1, 5] | Dmax (maximal degradation) AURKA [2, 6] | DC50 [2, 6] [nM] | Dmax (maximal degradation) AURKB [3] | DC50 [3] [nM] | EC50 [4, 7] [nM] | EC50 [4, 8] [nM] | DC50 (half-maximal degradation concentration) TTK [1, 5] | DC50 (half-maximal degradation concentration) AURKA [2, 6] | DC50 (half-maximal degradation concentration) AURKB [3] | EC50 (concentration that decreases cell viability by 50%) ([4]; 72 h treatment, MV4-11 cells (naive)) | Dmax ([1]; 6 h treatment, MV4-11^HiBiT-TTK cells, read-out: Dmax (maximal degradation) TTK) [%] | Dmax ([2]; 6 h treatment, MV4-11^AURKA-HiBiT cells, read-out: Dmax (maximal degradation) AURKA) [%] | Dmax ([3]; read-out: Dmax (maximal degradation) AURKB) [%] | EC50 ([4]; Homo sapiens, 72 h treatment, MV4-11 cells (naive), read-out: EC50 (concentration that decreases cell viability by 50%)) [nM] | selectivity of AURKA degradation (DC50) relative to TTK ([2]; HiBiT, 6 h) [fold] | fold lower activity (DC50) against TTK in comparison to degrader 19 ([1]; HiBiT, 6 h) [fold]
O=C(CCCC(=O)Nc1cccc2c1C(=O)N(C1CCC(=O)NC1=O)C2=O)NCC(=O)N1CCN(c2ccc(Nc3nc(NC4CCCCC4)c4nc[nH]c4n3)cc2)CC1 (stereo not shown) [Compound 19] | 67% and 66.50% | 18 nM and 17.7 nM | 78.80% | 109 | 43.60% | 570 | 1400 | 1380 | – | – | – | – | – | – | – | – | – | –
COc1cc(N2CCC(OCC(=O)NCCNC(=O)CCCC(=O)Nc3cccc4c3C(=O)N(C3CCC(=O)NC3=O)C4=O)CC2)ccc1Nc1nc(Nc2ccccc2S(=O)(=O)C(C)C)c2nc[nH]c2n1 (stereo not shown) [Compound 41] | inactive | – | inactive | – | inactive | – | – | – | – (compounds with degradation less than 25% were not calculated and reported as “–”) | – (compounds with degradation less than 25% were not calculated and reported as “–”) | – (compounds with degradation less than 25% were not calculated and reported as “–”) | — (compounds with decrease of cell viability less than 50% were not calculated and reported as “—”) | – | – | – | – | – | –
O=C1CCC(N2C(=O)c3cccc(NC(=O)COCCOCC(=O)N4CCN(c5ccc(Nc6nc(NC7CCCCC7)c7nc[nH]c7n6)cc5)CC4)c3C2=O)C(=O)N1 (stereo not shown) [Compound 17] | 39.40% | 66 nM | 68.90% | 239 | 36.10% | 598 | – | 506 | – | – | – | – | – | – | – | – | – | –
CC(C)S(=O)(=O)c1ccccc1Nc1nc(Nc2ccc(N3CCN(C(=O)CNC(=O)CCCC(=O)Nc4cccc5c4C(=O)N(C4CCC(=O)N(C)C4=O)C5=O)CC3)cc2)nc2[nH]cnc12 (stereo not shown) [Compound 24] | 16.95% | – | 17.00% | – | 20.40% | – | – | 618 | – (compounds with degradation less than 25% were not calculated and reported as “–”) | – (compounds with degradation less than 25% were not calculated and reported as “–”) | – (compounds with degradation less than 25% were not calculated and reported as “–”) | – | – | – | – | – | – | –
CC(C)S(=O)(=O)c1ccccc1Nc1nc(Nc2ccc(N3CCN(CCCC(=O)Nc4cccc5c4C(=O)N(C4CCC(=O)NC4=O)C5=O)CC3)cc2)nc2[nH]cnc12 (stereo not shown) [Compound 27] | 52.95% | 89.1 nM | 75.10% | 4.8 | 48.90% | 270 | – | 91 | – | – | – | – | – | – | – | – | – | –
CC(C)S(=O)(=O)c1ccccc1Nc1nc(Nc2ccc(N3CCNCC3)cc2)nc2[nH]cnc12 [SF1] | – | 1270 nM | – | 274 | – | 993 | – | – | – | – | – | – | 88.8 | 61.9 | 70.2 | 28 | – | –
CC(C)S(=O)(=O)c1ccccc1Nc1nc(Nc2ccc(N3CCN(C(=O)CCC(=O)Nc4cccc5c4C(=O)N(C4CCC(=O)NC4=O)C5=O)CC3)cc2)nc2[nH]cnc12 (stereo not shown) [Compound 15] | 35.20% | 42 nM | 74.55% | 2.05 | 33.15% | 154 | – | 39 | – | – | – | – | – | – | – | – | 21 | –
CN1C(=O)CCC(N2C(=O)c3cccc(NC(=O)CCCC(=O)NCC(=O)N4CCN(c5ccc(Nc6nc(NC7CCCCC7)c7nc[nH]c7n6)cc5)CC4)c3C2=O)C1=O (stereo not shown) [Compound 23] | 32.55% | 600 nM | 55.25% | 299 | 48.30% | 363 | 700 | 697 | – | – | – | – | – | – | – | – | – | 34
COc1cc(N2CCC(OCC(=O)N3CCN(c4cccc5c4C(=O)N(C4CCC(=O)NC4=O)C5=O)CC3)CC2)ccc1Nc1nc(Nc2ccccc2S(=O)(=O)C(C)C)c2nc[nH]c2n1 (stereo not shown) [Compound 40] | 23.00% | – | 41.60% | 282 | 43.70% | 1680 | – | 836 | – (compounds with degradation less than 25% were not calculated and reported as “–”) | – | – | – | – | – | – | – | – | –
